Patent US8507557B2, “Potentiators of insulin secretion” (Wisconsin Alumni Research Foundation, priority 2003, dated 2013)

Legend:
pancreatic β cells = assay: Insulin secretion from pancreatic β cells with Ca2+ channel, α2-adrenergic and KATP modulators; conditions: for effect on insulin secretion elicited by glyburide: in the presence of glyburide; for effect on insulin secretion caused by glucose, KIC, αKG or DPD: α2-adrenergic agonists
Protocol: The physiological relevance of insulin secretion from pancreatic β cells elicited by αKG was evaluated.
Possible targets for the segretagogue action of αKG were examined by reevaluating targets implicated for KIC-dependent increases in insulin secretion, since the effects of KIC are likely exerted through transamination that yields αKG. […] To biochemically test this hypothesis the inventors used known drugs to modulate KATP and then determined whether αKG and DPD could still affect insulin secretion.

[1] = system: hyperexcitable Newgard Ins-1 cells; conditions: low (3 mM) or high (15 mM) glucose; 2 hours at 3 mM glucose with compound, then 2 hours
Protocol: The cells were incubated at 3 mM glucose with the indicated concentrations of either αKG or the DPD analog for 2 hours. Then, the cells were incubated for an additional 2 hours in either 3 or 15 mM glucose.

Ins-1 cell = Ins-1 cell insulin secretion assay, preliminary SAR study in high glucose (FIG. 1); assay type: cell-based, rat; conditions: presence of high glucose; Ins-1 cell assay
Protocol: The ability of various structurally-related compounds to alter insulin secretion in the presence of high glucose was tested in a preliminary structure-activity relationship (SAR) study to elucidate the molecular structures relevant to the insulin segretagogue potential of DPD and other αKG analogs. The compounds tested, shown in FIG. 1, are presented in order of decreasing ability to secrete insulin in an Ins-1 cell assay of the type described below in the Working Example. Each tested compound is commercially available and all were purchased from Sigma-Aldrich. Each compound contained two carboxylate groups. Variables evaluated in this study included the relative position of the carboxylate groups to one another, as well as the presence or absence of a nitrogen or sulfur group, additional R-groups, and esterified carboxy groups.

rat Ins-1 beta cell line = conditions: rat Ins-1 cells; effect not as dramatic as in responsive cell line
β cells = conditions: without affecting glucose metabolism; cited from earlier work
[2] = as reported in Diabetes Care 25:1271 (2002); cited from earlier work

For `CCOC(=O)c1ccnc(C(=O)OCC)c1` [DPD, 2,4-diethyl pyridine dicarboxylate], the “potency on insulin secretion relative to αKG” value (pancreatic β cells) was “extremely potent relative to αKG”, the “effect on insulin secretion elicited by glyburide” value (“effect … by glyburide” for short) (pancreatic β cells) was “augmented” and the “effect upon insulin secretion (fractional insulin release)” value [1] was “marked positive effect”. The insulin secretion (Ins-1 cell) was about 14% and the “effect on insulin secretion (fractional insulin release)” value (rat Ins-1 beta cell line) was “increase in insulin secretion”.

With `CC1=NS(=O)(=O)c2cc(Cl)ccc2N1` [Diazoxide] the “effect on ability of αKG, DPD and KIC to promote insulin release” value (pancreatic β cells; KATP agonist) was “completely suppresses”.

In the case of `CC(C)CC(=O)C(=O)O` [KIC, α-ketoisocaproic acid], the “effect … by glyburide” value (pancreatic β cells) is reported as “augmented”.

In the case of `Clc1cccc(Cl)c1N=C1NCCN1` [clonidine], the “effect on insulin secretion caused by glucose, KIC, αKG or DPD” value (pancreatic β cells) is reported as “greatly suppressed”.

For `CNC[C@H](O)c1ccc(O)c(O)c1` [epinephrine], the “effect on insulin secretion caused by glucose, KIC, αKG or DPD” value (pancreatic β cells) was “greatly suppressed”.

For `O=c1c(-c2ccc(O)cc2)coc2cc(O)cc(O)c12` [genistein], the “effect on KIC-stimulated insulin release” value (β cells) is given as “inhibited”.

For `Cc1cnc(C(=O)NCCc2ccc(S(=O)(=O)NC(=O)NC3CCCCC3)cc2)cn1` [glipizide], the increase in insulin [2] is given as 54%.

For `COc1ccc(Cl)cc1C(=O)NCCc1ccc(S(=O)(=O)NC(=O)NC2CCCCC2)cc1` [glyburide], the insulin secretion elicited (pancreatic β cells; KATP antagonist) was “elicits an insulin secretion”.

For `CCOc1cc(CC(=O)N[C@@H](CC(C)C)c2ccccc2N2CCCCC2)ccc1C(=O)O` [repaglinide], the increase in insulin [2] is given as 47%.

In the case of `N#C/C(=C\c1ccc(O)c(O)c1)C(N)=S` [tyrphostin A47], the “effect on KIC-stimulated insulin release” value (β cells) is listed as “inhibited”.

For `O=C(O)CCC(=O)C(=O)O` [αKG, α-ketoglutarate], the “effect … by glyburide” value (pancreatic β cells) was “augmented”.
